Experiments:
Type in all cases: cell-based
[1] = tested on: diatoms; assay: mixed phytoplankton in natural seawater samples; settings: 2 mM mimosine, 6 days, diatoms dominant group in the control
Protocol: (§1) Whether mimosine can confer an advantage in the phytoplankton community by adding mimosine directly to natural seawater samples was therefore tested. Natural seawater samples were collected from Port Shelter (eastern Hong Kong) and filtered through a 100 μm mesh to remove all zooplankton immediately before use. Mimosine was then added at 2 mM and samples were taken for estimation of the percentage of dinoflagellates and diatoms. The samples were then incubated under the same conditions as in Example 1. Within 6 days, dinoflagellates became the dominant group. The dinoflagellate population increased from 30% to 60% of the total population (FIG. 2). The diatoms, which were the dominant group in the control, decreased to 10% of the total population in 6 days (at the time of measurement) upon treatment with mimosine.

[2] = tested on: dinoflagellates; assay: mixed phytoplankton in natural seawater samples; settings: 2 mM mimosine
Protocol: as §1

[3] = tested on: Cylindricus fusiformis (PCC100); assay: cell proliferation assay, monoculture of phytoplankton; settings: 8 days
Protocol: (§2) The effects of mimosine at low mM concentrations on pure cultures of four different groups of phytoplankton were tested. The phytoplankton tested were the Cryptophyceae Rhodomonas salina (CCMP1319), the Prymnesiophyceae Isochrysis galbana (CCMP1323), the Bacillariophyceae Cylindricus fusiformis (PCC100) and the dinoflagellate Heterocapsa triquetra (CCMP449). Cultures of phytoplankters were obtained from Bigelow Laboratory for Ocean Sciences (CCMP) or the Plymouth Culture Collection (PCC). The cultures were maintained in f/2 medium at 18° C., under photon flux of […] from fluorescent tubes (Phillips daylight) under a 14:10 hours light/dark cycle. For cell proliferation assays, exponentially growing cells were diluted ten times with fresh medium before the addition of mimosine to give cultures having a final mimosine concentration of 0.01, 0.1 and 1 mM. All chemicals were from Sigma Corporation unless otherwise stated. All growth studies were performed in triplicate. Cell counting was performed by Coulter counter and all samples were counted at least three times.

[4] = tested on: Heterocapsa triquetra (CCMP449); assay: as above; settings: 1 mM mimosine
Protocol: as §2

[5] = tested on: Rhodomonas salina (CCMP1319); assay: as above; settings: 8 days
Protocol: as §2

[6] = tested on: Isochrysis galbana (CCMP1323); assay: as above; settings: 8 days
Protocol: as §2

[7] = 0.01 and 0.1 mM mimosine, f/2 medium

NC(Cn1ccc(=O)c(O)c1)C(=O)O (stereo not drawn) [mimosine, α-amino-3-hydroxy-4-oxo-1-pyridine propanoic acid]
diatoms as percentage of the total population [1]: 10%
time until dinoflagellates became the dominant group ([2]; natural seawater): ≤ 6 days
dinoflagellate population as percentage of the total population ([2]; natural seawater (Port Shelter), 6 days, increased from 30%): 60%
mean cell numbers significantly lower than those in the controls ([3]; 1 mM mimosine): 25%
cell number compared to control treatment [3, 7]: slightly lower numbers of cells, though not significantly so
cell number compared to control treatment [4]: increased the cell number significantly
mean cell numbers significantly lower than those in the controls ([5]; 1 mM mimosine): 75%
cell number compared to control treatment [5, 7]: slightly lower numbers of cells, though not significantly so
cell number increase ([6]; 1 mM mimosine): no cell number increase
cell number compared to control treatment [6, 7]: slightly lower numbers of cells, though not significantly so
